Test results published in patent EP0469547B1, “4-Amino-delta4,6-steroids and their use as 5alpha-reductase inhibitors” (MERRELL PHARMACEUTICALS INC., priority 1990, dated 1992).

molecular target: T1, steroid 5α-reductase (Homo sapiens, UniProt P31213); test: 5α-reductase inhibition test with human prostate microsomal preparations (conversion of 1,2-³H-testosterone to dihydrotestosterone, HPLC); type: biochemical
T1 construct: Microsomal preparations of the steroid 5α-reductase enzyme (protein) were obtained from human prostate tissue; from tissue; host or cells: human prostate tissue (microsomal preparation)
T1 sequence (P31213 1-254): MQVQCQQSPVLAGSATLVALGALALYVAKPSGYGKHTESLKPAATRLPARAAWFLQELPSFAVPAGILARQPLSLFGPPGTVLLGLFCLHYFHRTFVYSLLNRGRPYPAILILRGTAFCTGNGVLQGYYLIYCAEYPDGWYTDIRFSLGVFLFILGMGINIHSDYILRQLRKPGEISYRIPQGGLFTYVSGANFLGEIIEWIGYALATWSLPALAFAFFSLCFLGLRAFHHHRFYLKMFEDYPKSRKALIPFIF
Description: Microsomal preparations of the steroid 5α-reductase enzyme (protein) were obtained from human prostate tissue and stored in aliquots. Protein concentration was determined prior to use of the samples. In the method itself, individual assays for 5α-reductase activity contained 0.1M phosphate citrate buffer, pH 5.6, 1mM EDTA, 7 to 22 µg of microsomal protein, 1mM NADPH, 5 mM glucose-6-phosphate, 1 IU/ml glucose-6-phosphate dehydrogenase, 1,2-³H-testosterone, and test compound, dissolved in dimethyl sulfoxide and then diluted in phosphate-citrate buffer to yield a final assay concentration of 0.1% (v/v) dimethyl sulfoxide. The same buffer and the same quantity of dimethyl sulfoxide, without any test compound is used for the control assays. The total assay volume was 100 µl and assays were performed in duplicate. The reaction was initiated by the addition of the testosterone, and incubated for 30 minutes at 25°C. The assay is linear with time to 30 minutes.
Depending on the nature of the inhibition, testosterone concentration was typically varied from 0.15 µM (approximately 0.5 Km) to 10 Km with radioactive label constant at 0.15 µCi per assay. The amount of test compound added was varied to provide final concentrations of 1 nM to 100 µM. The reaction was quenched by the addition of 50 volumes of chloroform:methanol (2:1). The steroids were then extracted and separated by high pressure liquid chromatography and the amounts of testosterone and dihydrotestosterone present were determined to determine the percent conversion of testosterone to dihydrotestosterone and to calculate the 5α-reductase activity. The activity of the test compound was then expressed as the IC₅₀, or the concentration of test compound that produced a 50% inhibition of the testosterone conversion. When compounds of the present invention were tested in this way, the following results were observed: […]

Q: For CC(C)N(C(=O)[C@H]1CC[C@H]2[C@@H]3C=CC4=C(N)C(=O)CC[C@]4(C)[C@H]3CC[C@]12C)C(C)C [4-Amino-N,N-bis(1-methylethyl)-3-oxoandrosta-4,6-diene-17β-carboxamide], which IC50 is on record?
A: 16 nM

Q: Which IC50 does the source give for CC(C)(C)NC(=O)[C@H]1CC[C@H]2[C@@H]3C=CC4=C(N)C(=O)CC[C@]4(C)[C@H]3CC[C@]12C [4-Amino-N-(1,1-dimethylethyl)-3-oxoandrosta-4,6-diene-17β-carboxamide] here?
A: 8 nM

Q: CC(=O)[C@H]1CC[C@H]2[C@@H]3C=CC4=C(N)C(=O)CC[C@]4(C)[C@H]3CC[C@]12C [4-Aminopregna-4,6-diene-3,20-dione] was tested. Which IC50 did it give?
A: 25 nM
